Measurements taken from ChEMBL document CHEMBL1201862, “PubChem BioAssay data set” (2004).
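The compound was tested at five concentrations on cells cultured in 96-well plates, with a 48-hour exposure period. GI50: concentration for 50% inhibition of growth.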 Active and inactive are the calls of the source. No stated cut-off is given here; in the data, active = GI50 up to about 1.1 µM and inactive = higher.

Tests used:
Assay in all cases: inhibition of tumour cell growth, NCI panel, 48 h
MDA-N = system: MDA-N
NCI/ADR-RES = system: NCI/ADR-RES
MDA-MB-435 = system: MDA-MB-435
LXFL 529 = system: LXFL 529
DMS-114 = system: DMS-114
M19-MEL = system: M19-MEL
DMS-273 = system: DMS-273
KM-20L2 = system: KM-20L2

Row | Structure (SMILES) | GI50 (MDA-N) | GI50 (NCI/ADR-RES) | GI50 (MDA-MB-435) | GI50 (LXFL 529) | GI50 (DMS-114) | GI50 (M19-MEL) | GI50 (DMS-273) | GI50 (KM-20L2)
1 | N#Cc1cnn2ccn(C3OC(COC(=O)c4ccccc4)C(OC(=O)c4ccccc4)C3OC(=O)c3ccccc3)c12 (stereo not drawn) | > 21.5 µM (inactive) | > 21.5 µM (inactive) | > 21.5 µM (inactive) | – | – | – | – | –
2 | COc1ccc(C(=O)N2CCc3c([nH]c4ccccc34)C2C(=O)O)o1 (stereo not drawn) | > 10 µM (inactive) | > 10 µM (inactive) | > 10 µM (inactive) | – | – | – | – | –
3 | COc1ccc(/C(=N/O)C(c2ccc(OC)cc2)C2C(=O)Oc3ccccc32)cc1 (stereo not drawn) | – | – | – | 36.3 µM (inactive) | 26.6 µM (inactive) | 68.5 µM (inactive) | – | –
4 | COc1cc2ccc1-c1cc(ccc1O)CC1c3cc4c(cc3CCN1C)Oc1c(OC)cc3c(c1O4)C(C2)N(C)CC3 (stereo not drawn) | – | – | – | 1.84 µM (inactive) | 2 µM (inactive) | 1.88 µM (inactive) | 1.78 µM (inactive) | 1.46 µM (inactive)
5 | O=C1CC(c2ccsc2)n2cccc21 (stereo not drawn) | – | > 100 µM (inactive) | > 100 µM (inactive) | – | – | – | – | –
6 | Cc1noc(/N=C2\C=C(O)C(=O)c3ccccc32)c1C | 0.173 µM (active) | 0.505 µM (active) | 0.126 µM (active) | – | – | – | – | –
7 | CC(C)(C)c1cc(S(=O)(=O)O)c2oc(-c3ccccc3)cc(=O)c2c1 | > 100 µM (inactive) | > 100 µM (inactive) | > 100 µM (inactive) | – | – | – | – | –
8 | C=C(C)CCC1CC=[N+]([O-])OC1C(C)(C)C (stereo not drawn) | 42.3 µM (inactive) | 27.3 µM (inactive) | 16.1 µM (inactive) | – | – | – | – | –
9 | COc1cc2nc(-c3cccs3)[nH]c(=O)c2cc1OC | – | > 100 µM (inactive) | > 100 µM (inactive) | – | – | – | – | –
10 | CCCC/C(C)=N/NC(N)=S | – | – | – | > 100 µM (inactive) | > 100 µM (inactive) | > 100 µM (inactive) | – | > 100 µM (inactive)
11 | CC1(C)N=c2c(ncn2Cc2ccccc2)=C(C(N)=O)N1 | > 100 µM (inactive) | > 100 µM (inactive) | > 100 µM (inactive) | – | – | – | – | –
12 | COC(=O)CP1(=O)OC2C(C3CCC2(C)C3(C)C)N1c1cc(C(F)(F)F)cc(C(F)(F)F)c1 (stereo not drawn) | – | 20.6 µM (inactive) | 22.1 µM (inactive) | – | – | – | – | –
13 | O=C(/C=C/NC(=O)OCc1ccccc1)OCc1ccccc1 | > 100 µM (inactive) | > 100 µM (inactive) | > 100 µM (inactive) | – | – | – | – | –
14 | Nc1n[n+](-c2ccccc2)no1 | – | – | – | 5.26 µM (inactive) | 18.3 µM (inactive) | 46.2 µM (inactive) | 33.2 µM (inactive) | 10.8 µM (inactive)
15 | CCOC(=O)[C@@]12CCC(C1=O)[C@](C)(O)C[C@@H]2c1ccccc1 | 3.86 µM (inactive) | 29 µM (inactive) | 8.07 µM (inactive) | – | – | – | – | –
16 | Nc1ncnc2c1nnn2C1C=CC(CP(=O)(O)O)C1 (stereo not drawn) | > 100 µM (inactive) | > 100 µM (inactive) | > 10 µM (inactive) | – | – | – | – | –
17 | COc1cc([N+](=O)[O-])ccc1NC(=O)C(F)(F)F | > 100 µM (inactive) | > 100 µM (inactive) | > 100 µM (inactive) | – | – | – | – | –
18 | COc1cc([N+](=O)[O-])c(S(=O)(=O)O)cc1N | > 100 µM (inactive) | > 100 µM (inactive) | > 100 µM (inactive) | – | – | – | – | –
19 | Cn1cnc(N2CCCC2)c(C#N)c1=S | > 100 µM (inactive) | > 100 µM (inactive) | > 100 µM (inactive) | – | – | – | – | –
20 | Cc1cccc(CC(Cc2c(C)cccc2C(=O)O)C(=O)O)c1 (stereo not drawn) | > 100 µM (inactive) | > 100 µM (inactive) | > 100 µM (inactive) | – | – | – | – | –
21 | C1=CC=C2NCCSCC/N=C3/C=CC=CC=C3NCCSCC/N=C\2C=C1 | – | – | – | > 100 µM (inactive) | > 100 µM (inactive) | > 100 µM (inactive) | > 100 µM (inactive) | > 100 µM (inactive)
22 | O=c1cc(-c2ccccc2)oc2cc(OCCCOc3ccc4c(=O)cc(-c5ccccc5)oc4c3)ccc12 | – | – | – | > 100 µM (inactive) | > 100 µM (inactive) | > 100 µM (inactive) | > 100 µM (inactive) | > 100 µM (inactive)
23 | COc1cc(C(=O)C2C(=O)c3ccccc3C2C2(O)c3ccccc3CC2C(O)c2cc(OC)c(OC)c(OC)c2)cc(OC)c1OC (stereo not drawn) | > 100 µM (inactive) | > 100 µM (inactive) | > 100 µM (inactive) | – | – | – | – | –
24 | C=CCC1C2CCC(O[Si](C(C)C)(C(C)C)C(C)C)(C(C(=O)OC)C2)C1O (stereo not drawn) | > 100 µM (inactive) | > 100 µM (inactive) | 53.7 µM (inactive) | – | – | – | – | –
25 | NCCCn1c2ccccc2c2c3c(c4c(c21)CCC(O)CC4)C(=O)NC3=O (stereo not drawn) | – | 13 µM (inactive) | 1.53 µM (inactive) | – | – | – | – | –
26 | O=c1[nH]cnc2[nH]nnc12 | – | – | – | 84.7 µM (inactive) | 8.02 µM (inactive) | 4.02 µM (inactive) | 6 µM (inactive) | 3.87 µM (inactive)
27 | COC(=O)CC(C(C(=O)OCc1ccccc1)C(C)O)N1C(=O)OCC1c1ccccc1 (stereo not drawn) | – | – | – | 56.1 µM (inactive) | 46.9 µM (inactive) | 69.2 µM (inactive) | 66.1 µM (inactive) | 83.8 µM (inactive)
28 | CCCC(=O)Oc1cc(OC(=O)CCC)c2c(C)cc(=O)oc2c1 | 62.2 µM (inactive) | > 100 µM (inactive) | 58.6 µM (inactive) | – | – | – | – | –
